Test results published in patent publication US20180338927A1, “ETHER CELLULOSE DERIVATIVE MICROPARTICLE” (Toray Industries, Inc., priority 2015, published 2018).
Counter-ions that a name gives are not always drawn.

Assay: Comparison of supported amounts by HPLC (Test Example 8)
Format: physicochemical
Conditions: porous Example 6 microparticles (Examples 10 to 15) versus raw material ethyl cellulose powder (Comparative Examples 6 to 11)
Experimental: The supported amount ratio of a physiologically active substance between microparticles in an example and microparticles in a comparative example supporting the same physiologically active substance was calculated on the basis of the following equation. HPLC measurement was carried out as follows. After weighing 25 mg each of the microparticles in the examples and the comparative examples, the microparticles were respectively put in 50-mL volumetric flasks. Each type of microparticles was completely dissolved in 5 mL of ethanol added, and the solution was diluted with deionized water added and passed through a 0.45-μm filter to provide an HPLC sample. The sample was measured under the same conditions as for Test Example 5.

Support amount ratio (=example/comparative example)	SMILES
1.6	O=C(O)c1ccccc1O [Salicylic acid, salicylic acid]
1.2	CC(C)Cc1ccc(C(C)C(=O)O)cc1 (stereo not drawn) [Ibuprofen, ibuprofen]

Second part, the compound before the results:

SMILES	Support amount ratio (=example/comparative example)
CC(=O)Nc1ccc(O)cc1 [Acetaminophen, acetaminophen]	1.4
Cc1ncc(C[n+]2csc(CCO)c2C)c(N)n1 [Thiamine hydrochloride, thiamine hydrochloride]	10.7
C=C[C@H]1C[N@@]2CC[C@H]1C[C@H]2[C@H](O)c1ccnc2ccc(OC)cc12 [Quinine hydrochloride dihydrate, quinine hydrochloride dihydrate]	1.8
Cn1c(=O)c2[nH]cnc2n(C)c1=O [Theophylline, theophylline]	1.2
